Laboratory results reported in US6750178B1, “Agrochemical composition” (Syngenta Limited, priority 1999, dated 2004).

Experiments:
Assay type in all cases: in vivo
[1] = system: SIDSP; experiment: Glass-house ED90 of paraquat dichloride plus adjuvant, SIDSP; conditions: paraquat dichloride 15, 45, 135 and 270 g/ha paraquat ion; adjuvant 0.1% w/v; 18 days after treatment
[2] = system: Soghinm halepenise(SORHA); experiment: Glass-house ED90 of glyphosate salts, SORHA; conditions: calculated dose for 90% control; rates 500-4000 glyphosate acid equivalent/ha; AL2042 0.25% w/v with all treatments; 22 days after treatment
Description: This Example illustrates the use of salts of glyphosate acid and the adjuvants of Formula (I).
Glyphosate trimesium and the glyphosate salts of the indicated adjuvants of formula (I) were applied to Soghinm halepenise(SORHA) at 500, 1000, 2000 and 4000 glyphosate acid equivalent/ha. All treatments were made up in deionised water and applied using a tracksprayer with a 11002 nozzle at a spray application volume of 200 l/ha . All treatments were replicated 3 times. After spraying the plants were laid out in a glass-house and maintained at a temperature of 24° C. by day and 19° C. by night. A visual assessment of % control was carried out 22 days after treatment and calculated doses for 90% control (ED90) were derived. AL2042 alkylpolygylcoside was used at 0.25% w/v as additional surfactant with all treatments. It will be appreciated that a low ED90 value indicates high activity.

[3] = system: Ipomoea hederacea (IPOHE); experiment: Glass-house visual % control with potassium glyphosate plus adjuvant, IPOHE; conditions: potassium glyphosate 300 g glyphosate acid equivalent/ha, AL2042 0.2% w/v, CRODAFOS T5A salts 0.2% w/v phosphate ester acid equivalent, 16 days after treatment
Description: This Example illustrates the use of a salt of ethoxy (5 moles of EO) isotridecyl phosphate, ester in the acid form (CRODAFOS T5A) with JEFFAMINE ED600. CRODAFOS T5A is a mixture of mono and di esters. CRODAFOS is a tradename of Croda.
Potassium glyphosate, in combination with the adjuvants specified below, was applied to Ipomoea hederacea (IPOHE) at 300 g glyphosate acid equivalent/ha. All treatments were made up in deionised water and applied using a tracksprayer with a 11002 nozzle at a spray application volume of 200 l/ha. All treatments were replicated 4 times. After spraying the plants were laid out in a glass-house and maintained at a temperature of 24° C. by day and 19° C. by night. A visual assessment of % control was carried out 16 days after treatment.
The AL2042 was applied at 0.2% w/v and the CRODAFOS T5A salts were applied at 0.2% w/v phosphate ester acid equivalent. The Crodafos T5A potassium salt was prepared by neutralising the phosphate ester in its acid form with potassium hydroxide to pH6. The CRODAFOS T5A JEFFAMINE ED600 salt was prepared by neutralising the phosphate ester in its acid form with JEFFAMINE ED600 to pH6.

[4] = system: Abutilon theophrasti (ABUTH); experiment: Glass-house visual % control with potassium glyphosate plus adjuvant; conditions: potassium glyphosate 500 g glyphosate acid equivalent/ha, adjuvant 0.2% w/v, 200 l/ha, 16 days after treatment, 0=unaffected, 100=complete kill
Description: Potassium glyphosate was applied at 500 g glyphosate acid equivalent/ha to Abutilon theophrasti (ABUTH) plants grown in the glass-house. All treatments were made up in deionised water and applied using a tracksprayer with a 11002 nozzle at a spray application volume of 200 l/ha . All treatments were replicated 4 times. After spraying the plants were laid out in a glass-house and maintained at a temperature of 24° C. by day and 19° C. by night. The JEFFAMINE adjuvants were used in a proportion 0.2% w/v. A visual assessment of % control, where 0=unaffected and 100=complete kill, was carried out 16 days after treatment.

Structure (SMILES): C[n+]1ccc(-c2cc[n+](C)cc2)cc1 [Control — No adjuvant, Paraquat dichloride]
- ED90 SIDSP [1]: (>270) g paraquat ion per litre

Structure (SMILES): C[S+](C)C.O=C([O-])CNCP(=O)(O)O [Glyphosate trimesium]
- SORHA — ED90 [2]: 1410 gae/ha

Structure (SMILES): O=C(O)CNCP(=O)([O-])O.[K+] [No adjuvant, Potassium glyphosate]
- IPOHE — % control [3]: 64%
- % control [4]: 37%
